Assay results: ChEMBL document CHEMBL4421718, “Quinoxaline derivatives as gpr6 modulators” (2015)
pIC50: −log10 of the molar value.

How the values were obtained:
[1] = target: G-protein coupled receptor 6 (Homo sapiens, UniProt P46095); assay: Modulation activity at GPR6 receptor (unknown origin) expressed in CHO-K1 cells assessed as inhibition of constitutive cAMP activity incubated for 45 mins by Perkin Elmer Lance HTRF Ultrac-AMP assay; assay type: functional, cell-based
Mus musculus [2] = assay: Reversal of haloperidol-induced catalepsy in C57BL6 mouse model of Parkinson's disease assessed as reduction in catalepsy intensity index at 30 mg/kg, ip dosed along with haloperidol and measured after 30 mins relative to untreated control; assay type: functional; parameters: scale not given: the % may be the effect or the level left
Mus musculus [3] = assay: Reversal of haloperidol-induced catalepsy in C57BL6 mouse model of Parkinson's disease assessed as reduction in catalepsy intensity index at 30 mg/kg, ip dosed along with haloperidol and measured after 120 mins relative to untreated control; assay type: functional; parameters: scale not given: the % may be the effect or the level left
Rattus norvegicus = assay: Reversal of haloperidol-induced catalepsy in Sprague-Dawley rat model of Parkinson's disease assessed as reduction in catalepsy intensity index at 10 mg/kg, sc dosed along with haloperidol and measured after 30 mins relative to untreated control; assay type: functional; parameters: scale not given: the % may be the effect or the level left
Mus musculus [4] = assay: Reversal of haloperidol-induced catalepsy in C57BL6 mouse model of Parkinson's disease assessed as reduction in catalepsy intensity index at 10 mg/kg, sc dosed along with haloperidol and measured after 120 mins relative to untreated control; assay type: functional; parameters: scale not given: the % may be the effect or the level left
Mus musculus [5] = assay: Reversal of haloperidol-induced catalepsy in C57BL6 mouse model of Parkinson's disease assessed as reduction in catalepsy intensity index at 10 mg/kg, ip dosed along with haloperidol and measured after 30 mins relative to untreated control; assay type: functional; parameters: scale not given: the % may be the effect or the level left
Mus musculus [6] = assay: Reversal of haloperidol-induced catalepsy in C57BL6 mouse model of Parkinson's disease assessed as reduction in catalepsy intensity index at 10 mg/kg, ip dosed along with haloperidol and measured after 120 mins relative to untreated control; assay type: functional; parameters: scale not given: the % may be the effect or the level left

Chain of G-protein coupled receptor 6 (P46095 whole entry): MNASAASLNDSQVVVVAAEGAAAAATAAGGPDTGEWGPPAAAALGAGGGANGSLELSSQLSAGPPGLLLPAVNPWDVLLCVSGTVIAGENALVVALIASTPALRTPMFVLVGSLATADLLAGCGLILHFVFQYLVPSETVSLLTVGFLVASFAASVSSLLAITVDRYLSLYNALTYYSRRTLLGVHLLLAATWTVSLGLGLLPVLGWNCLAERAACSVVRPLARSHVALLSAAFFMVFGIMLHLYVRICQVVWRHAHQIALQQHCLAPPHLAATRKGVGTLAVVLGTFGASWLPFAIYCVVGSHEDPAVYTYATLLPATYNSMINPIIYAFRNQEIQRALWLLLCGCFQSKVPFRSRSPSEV

pIC50 [1] | Structure (SMILES) | also measured
6.84 | CC1CC1Nc1nc2cnncc2nc1N1CCC([C@@H](F)c2ccc(F)cc2F)CC1 (stereo partly specified) | –
7.21 | Fc1ccc(F)c(CN2CCN(c3nc4cncc(Cl)c4nc3NC3CC3)CC2)c1 | –
7.68 | Fc1ccc(CN2CCN(c3nc4cnccc4nc3NC3CC3)CC2)c(F)c1 | –
7.68 | COc1ccc(C(=O)C2CCN(c3nc4cnccc4nc3NC3CC3)CC2)c(F)c1 | –
4.75 to 5.00 | COc1ccc(C(=O)N2CCN(c3nc4ccccc4nc3NC3CC3)CC2)cc1Cl | –
5.96 | Fc1ccc(OC2CCN(c3nc4cnccc4nc3NC3CC3)CC2)c(F)c1 | –
7.27 | CN1CCN(C(=O)c2cc3nc(NC4CC4)c(N4CCC(C(=O)c5cc(C#N)ccc5F)CC4)nc3cn2)CC1 | –
6.94 | COc1ccc(OC2CCN(c3nc4c(N5CCOCC5)nccc4nc3NC3CC3)CC2)c(F)c1 | –
7.44 | COc1ccc(OC2CCN(c3nc4cnncc4nc3NC3CC3)CC2)c(F)c1 | –
6.14 | COc1ccc(C(=O)C2CCN(c3nc4c(N5CCOCC5)nccc4nc3NC3CC3)CC2)c(F)c1 | –
4.61 to 6.08 | Cc1cccc(CN2CCN(c3nc4ncccc4nc3NC3CC3)CC2)c1 | –
5.80 | C[C@H](CO)Nc1nc2ccccc2nc1N1CCN(Cc2cc(Cl)ccc2Cl)CC1 | –
7.72 | Fc1ccc(CC2CCN(c3nc4cnccc4nc3NC3CC3)CC2)c(F)c1 | –

Second part, the compound before the results:

Structure (SMILES) | pIC50 [1] | also measured
Clc1cccc(Cl)c1CN1CCN(c2nc3ccccc3nc2NC2CC2)CC1.O=C(O)C(F)(F)F | – | Activity (Mus musculus [2]): 40.4%; Activity (Mus musculus [3]): 29.6%
CC(C)Nc1nc2ccc(C#N)cc2nc1N1CCC([C@H](F)c2cc(F)ccc2F)CC1 | 7.09 | –
Clc1cccc(CN2CCN(c3nc4ccccc4nc3Nc3cccnc3)CC2)c1.O=C(O)C(F)(F)F | – | Activity (Mus musculus [2]): 13.6%; Activity (Mus musculus [3]): 15.4%
Cc1nncc2nc(N3CCC(Oc4ccc(F)cc4F)CC3)c(NC(C)C)nc12 | 7.51 | –
CC(C)Nc1nc2ccccc2nc1N1CCC(Oc2ccc(Cl)cc2F)CC1 | 7.29 | –
N#Cc1ccc2nc(NC3CC3)c(N3CCC(Cc4ccc(F)cc4F)CC3)nc2c1.O=C(O)C(F)(F)F | – | Activity (Rattus norvegicus): 36.9%; Activity (Mus musculus [4]): 25.1%
CC(C)Nc1nc2ccc(C#N)cc2nc1N1CCN(Cc2cc(Cl)ccc2Cl)CC1 | 6.51 | –
COc1ccc(C(=O)C2CCN(c3nc4c(C#N)nccc4nc3NC3CC3)CC2)c(F)c1 | 7.37 | –
N#Cc1ccc2nc(NC3CC3)c(N3CCN(Cc4cc(Cl)ccc4Cl)CC3)nc2c1 | – | Activity (Mus musculus [2]): 27.4%; Activity (Mus musculus [5]): 42%; Activity (Mus musculus [3]): 15.7%; Activity (Mus musculus [6]): 18.8%
Cc1nnc(C)c2nc(N3CCC(Oc4ccc(F)cc4F)CC3)c(NC(C)C)nc12 | 7.22 | –
Clc1ccc(Cl)c(CN2CCN(c3nc4ccccc4nc3NC3CC3)CC2)c1.O=C(O)C(F)(F)F | – | Activity (Mus musculus [2]): 48.1%; Activity (Mus musculus [3]): 41.4%
